Consider 21 compounds from patent US20150315211A1, “SMALL MOLECULES FOR THE MODULATION OF MCL-1 AND METHODS OF MODULATING CELL DEATH, CELL DIVISION, CELL DIFFERENTIATION AND METHODS OF TREATING DISORDERS” (priority 2010, published 2015).

In experiment [1] the target is MCL-1ΔNΔC (Homo sapiens, UniProt Q07820). In words: High-throughput competitive FP binding screen, FITC-MCL-1 SAHB/MCL-1ΔNΔC interaction. Set-up: the C-terminal alpha-helix was deleted from each of these constructs; GST (N, cleaved yes); made in house. The following applies: FITC-MCL-1 SAHB/MCL-1ΔNΔC interaction pair, competitive FP screen.
For experiment [2], the target named is BCL-XLΔC (Homo sapiens, UniProt Q07817). In words: High-throughput competitive FP binding screen, FITC-BAD BH3/BCL-XLΔC interaction. The following applies: FITC-BAD BH3/BCL-XLΔC interaction pair, competitive FP screen.
Experiment [3] concerns MCL-1ΔNΔC. In words: High-throughput competitive FP binding screen, FITC-MCL-1 SAHB/MCL-1ΔNΔC interaction. The following applies: selectivity for MCL-1ΔNΔC over BCL-XLΔC targeting (BCL-XL % Bound minus MCL-1 % Bound).

Chain of BCL-XLΔC (Q07817 1-212 limits assumed, stated change not applied): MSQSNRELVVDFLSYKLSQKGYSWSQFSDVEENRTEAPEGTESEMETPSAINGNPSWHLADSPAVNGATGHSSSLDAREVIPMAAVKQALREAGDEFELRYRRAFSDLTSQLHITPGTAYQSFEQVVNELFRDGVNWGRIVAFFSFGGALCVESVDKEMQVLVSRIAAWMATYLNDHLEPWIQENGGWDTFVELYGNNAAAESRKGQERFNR
Chain of MCL-1ΔNΔC (Homo sapiens, UniProt Q07820) (Q07820 172-320 limits assumed, stated change not applied): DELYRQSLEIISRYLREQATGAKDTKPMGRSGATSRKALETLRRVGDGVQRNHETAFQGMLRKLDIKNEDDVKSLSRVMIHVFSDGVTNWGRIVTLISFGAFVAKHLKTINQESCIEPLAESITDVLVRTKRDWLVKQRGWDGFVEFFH

As to `N#Cc1cc2c([nH]c1=S)CCC2`, in experiment [1], the “MCL-1% Bound” value worked out at 32.6%. The “BCL-XL % Bound” value in experiment [2] stood at 86.64%. The “Spec Values” in experiment [3] amounted to 54.04.

With `O=C(O)C1CCCN(c2nn3cc(-c4ccc(F)cc4)nc3s2)C1` (stereo not drawn), in experiment [1], the “MCL-1% Bound” value was 28.04%. Moreover, the “BCL-XL % Bound” value in experiment [2] amounted to 82.02%. The “Spec Values” in experiment [3] came to 53.98.

In the case of `CN(C)c1ccc2cccc(O)c2n1`, the “MCL-1% Bound” value in experiment [1] turned out to be 41.22%. The “BCL-XL % Bound” value in experiment [2] is recorded as 95.09%. In experiment [3], the “Spec Values” is on record as 53.86.

Turning to `CCOc1cccc(/C=N/n2c(S)nnc2-c2ccc(Cl)cc2)c1O`, the “MCL-1% Bound” value in experiment [1] is listed as 42.83%. The “BCL-XL % Bound” value in experiment [2] was determined as 96.58%. In experiment [3], the “Spec Values” was 53.75.

Turning to `CCCCCOc1ccc(C(=O)/C=C/C(=O)O)cc1`, the “MCL-1% Bound” value in experiment [1] was 43.85%. Also, in experiment [2], the “BCL-XL % Bound” value is given as 97.46%. Besides, in experiment [3], the “Spec Values” was found to be 53.61.

For the compound `Cc1nc2sccn2c1-c1nc(-c2ccc(Br)o2)c(C(=O)c2ccc3c(c2)OCCO3)s1`, the “MCL-1% Bound” value in experiment [1] worked out at 39.75%. Also, the “BCL-XL % Bound” value in experiment [2] came out at 93.3%. Moreover, the “Spec Values” in experiment [3] turned out to be 53.55.

As for `CC1CCC[SH](c2cc(O)ccc2O)C1` (stereo not drawn), the “MCL-1% Bound” value in experiment [1] amounted to 41.16%. In addition, the “BCL-XL % Bound” value in experiment [2] is on record as 94.72%. Also, the “Spec Values” in experiment [3] came out at 53.57.

Take `O=c1c(O)cccc2cc(O)c(O)c(O)c12`: the “MCL-1% Bound” value in experiment [1] was −19.81%. Moreover, the “BCL-XL % Bound” value in experiment [2] was determined as 33.74%. The “Spec Values” in experiment [3] turned out to be 53.55.

`CC(/N=C/c1cccc(O)c1O)c1ccccc1` (stereo not drawn): the “MCL-1% Bound” value in experiment [1] was determined as 40.42%. In addition, the “BCL-XL % Bound” value in experiment [2] came out at 93.71%. Also, in experiment [3], the “Spec Values” is given as 53.29.

Consider `N#CSC(C#N)Cc1ccccc1` (stereo not drawn), for which the “MCL-1% Bound” value in experiment [1] came to 50.39%. Besides, the “BCL-XL % Bound” value in experiment [2] is recorded as 103.6%. In experiment [3], the “Spec Values” was determined as 53.23.

On to `O=C(CSc1nnc(-c2ccoc2)c(-c2ccoc2)n1)c1ccc(-c2ccccc2)cc1`, for which the “MCL-1% Bound” value in experiment [1] is on record as 45.38%. In addition, in experiment [2], the “BCL-XL % Bound” value turned out to be 98.52%. In addition, the “Spec Values” in experiment [3] is given as 53.14.

Consider `Oc1ccc(CNc2ccccc2O)cc1`, for which the “MCL-1% Bound” value in experiment [1] was determined as 36.26%. For the same compound, in experiment [2], the “BCL-XL % Bound” value came to 89.38%. The “Spec Values” in experiment [3] came out at 53.12.

With `CCCOc1nc2c(c(-c3ccco3)c1C#N)CCCC2`, the “MCL-1% Bound” value in experiment [1] was found to be 30.71%. The “BCL-XL % Bound” value in experiment [2] is 83.67%. Besides, the “Spec Values” in experiment [3] was 52.96.

For `NC1=C(c2nc3ccccc3s2)CC(=O)N1CCc1ccccc1`, the “MCL-1% Bound” value in experiment [1] was 55.57%. The “BCL-XL % Bound” value in experiment [2] was 108.5%. The “Spec Values” in experiment [3] turned out to be 52.91.

Regarding `C/C(=N\NC(=S)Nc1ccccc1C)c1ccc(O)cc1`, the “MCL-1% Bound” value in experiment [1] was 50.82%. Moreover, the “BCL-XL % Bound” value in experiment [2] is 103.4%. In addition, in experiment [3], the “Spec Values” is given as 52.6.

Turning to `C=CCSc1nnc(-c2ccc(C(C)(C)C)cc2)n1Cc1ccco1`, in experiment [1], the “MCL-1% Bound” value is 69.99%. In addition, in experiment [2], the “BCL-XL % Bound” value came out at 122.3%. In experiment [3], the “Spec Values” amounted to 52.3.

`COC(=O)c1c(NC(=S)Nn2cnnc2)sc2c1CCC(C)C2` (stereo not drawn): in experiment [1], the “MCL-1% Bound” value stood at 25.26%. For the same compound, in experiment [2], the “BCL-XL % Bound” value is reported as 77.55%. In experiment [3], the “Spec Values” is 52.28.

`O=C(/C=C/c1ccco1)NC(=S)Nc1ccccc1C(F)(F)F`: the “MCL-1% Bound” value in experiment [1] was found to be 47.01%. The “BCL-XL % Bound” value in experiment [2] was 99.25%. Further, in experiment [3], the “Spec Values” is 52.25.

As to `O=C(/C=C/c1ccc(Br)o1)OCC(=O)c1c[nH]c2ccccc12`, the “MCL-1% Bound” value in experiment [1] came to 53.49%. In addition, in experiment [2], the “BCL-XL % Bound” value came out at 105.6%. Also, the “Spec Values” in experiment [3] was found to be 52.14.

For the compound `CCC(c1nnc(SCC(=O)NCCc2ccc(Cl)cc2Cl)o1)N(C)C` (stereo not drawn), in experiment [1], the “MCL-1% Bound” value was 49.44%. Moreover, in experiment [2], the “BCL-XL % Bound” value is 101.6%. Moreover, the “Spec Values” in experiment [3] amounted to 52.14.

For the compound `CCN1C(=O)C2Cc3cc(OC)c(OC)cc3CN2C1=S` (stereo not drawn), in experiment [1], the “MCL-1% Bound” value is reported as 39.84%. Besides, the “BCL-XL % Bound” value in experiment [2] is listed as 91.73%. In addition, the “Spec Values” in experiment [3] came out at 51.9.
